Measured values taken from publication PMC9471048, “The signaling and selectivity of α‐adrenoceptor agonists for the human α2A, α2B and α2C‐adrenoceptors and comparison with human α1 and β‐adrenoceptors” (Pharmacology Research & Perspectives, 2022).
Where two headings read alike, the source gives them in different places.

Key:
[1] = target: T1, human α2A‐adrenoceptor (Homo sapiens, UniProt P08913); details: for Log efficacy ratio (KD/IC50): CHO‐α2A, binding KD / Gi IC50 of CRE‐SPAP; for IC50: Log IC50 (Gi), CRE‐SPAP (with forskolin), CHO‐α2A (cell line 1, 5830 fmol/mg protein), 3 μM forskolin
T1 sequence (P08913 1-465): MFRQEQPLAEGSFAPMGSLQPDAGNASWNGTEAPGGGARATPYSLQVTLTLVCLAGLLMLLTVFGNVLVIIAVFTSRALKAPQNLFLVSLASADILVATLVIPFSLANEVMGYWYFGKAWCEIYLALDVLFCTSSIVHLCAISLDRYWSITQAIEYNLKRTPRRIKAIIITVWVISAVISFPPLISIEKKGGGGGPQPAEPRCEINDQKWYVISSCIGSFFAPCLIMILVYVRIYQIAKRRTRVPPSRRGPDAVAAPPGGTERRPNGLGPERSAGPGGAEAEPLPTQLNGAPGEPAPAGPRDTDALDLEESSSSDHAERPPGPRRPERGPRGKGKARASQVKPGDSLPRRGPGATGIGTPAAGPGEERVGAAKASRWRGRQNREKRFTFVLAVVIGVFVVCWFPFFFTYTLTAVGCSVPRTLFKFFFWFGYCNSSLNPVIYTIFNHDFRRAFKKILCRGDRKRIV

[2] = target: T2, human α2C‐adrenoceptor (Homo sapiens, UniProt P18825)
T2 sequence (P18825 1-462): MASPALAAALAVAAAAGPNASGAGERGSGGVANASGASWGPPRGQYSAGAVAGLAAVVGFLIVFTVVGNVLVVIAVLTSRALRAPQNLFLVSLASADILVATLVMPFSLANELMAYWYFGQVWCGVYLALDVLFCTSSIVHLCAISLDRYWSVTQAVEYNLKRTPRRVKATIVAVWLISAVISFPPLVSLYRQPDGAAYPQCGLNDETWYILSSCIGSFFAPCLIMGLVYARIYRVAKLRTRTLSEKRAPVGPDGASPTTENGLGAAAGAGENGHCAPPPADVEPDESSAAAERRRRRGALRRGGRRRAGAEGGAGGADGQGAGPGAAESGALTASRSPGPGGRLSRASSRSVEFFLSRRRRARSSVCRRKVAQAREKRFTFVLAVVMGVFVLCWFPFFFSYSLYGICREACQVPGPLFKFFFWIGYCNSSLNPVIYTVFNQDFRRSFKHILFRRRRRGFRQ

[3] = target: T1, human α2A‐adrenoceptor; test: 3H‐rauwolscine whole cell binding in CHO‐α2A cells; set-up: expressed in transfected cells; host or cells: CHO-K1 with CRE-SPAP reporter
[4] = target: T2, human α2C‐adrenoceptor; test: 3H‐rauwolscine whole cell binding in CHO‐α2C cells; set-up: expressed in transfected cells; host or cells: CHO-K1 with CRE-SPAP reporter
[5] = target: T1, human α2A‐adrenoceptor; test: ERK1/2‐phosphorylation in CHO‐α2A cells; format: cell-based; set-up: expressed in transfected cells; host or cells: CHO-K1 with CRE-SPAP reporter
[6] = target: T2, human α2C‐adrenoceptor; test: ERK1/2‐phosphorylation in CHO‐α2C cells; format: cell-based; set-up: expressed in transfected cells; host or cells: CHO-K1 with CRE-SPAP reporter
[7] = CHO‐α2C cells, % inhibition from the 3 μM forskolin control, mean ± SEM
[8] = CHO‐α2C cells, CRE‐SPAP production in the absence of forskolin
[9] = 3H‐rauwolscine whole cell binding, living cells, negative log KD, mean ± SEM, read-out: Log KD, CHO‐α2C (converted)
[10] = CHO‐α2C cells, 3H‐rauwolscine whole cell binding, given as negative log KD, mean only (SEM in Table 4), read-out: Log KD (converted)
[11] = CHO‐α2A, maximum response compared to 10 μM PDBu
[12] = CHO‐α2C cells, maximum response compared to 10 μM PDBu, mean ± SEM
[13] = CHO‐α2A (cell line 1), % inhibition from the 3 μM forskolin control, inhibition only
[14] = CHO‐α2A (cell line 1), absence of forskolin
[15] = CHO‐α2C cells, log KD from 3H‐rauwolscine binding versus CRE‐SPAP log IC50
[16] = Log IC50 (Gi), CRE‐SPAP (with forskolin), CHO‐α2C cells, inhibition of 3 μM forskolin‐stimulated CRE‐SPAP production, given as negative log IC50, mean ± SEM
[17] = 3H‐rauwolscine whole cell binding, living cells, negative log KD, mean ± SEM, read-out: Log KD, CHO‐α2A (converted)
[18] = CHO‐α2A, 3H‐rauwolscine whole cell binding, given as negative log KD, read-out: Log KD (binding) (converted)
[19] = fold, from KD values, 1 = no selectivity
[20] = CHO‐α2A, read-out: Log EC50, ERK1/2‐phosphorylation (converted)
[21] = CHO‐α2C cells, given as negative log EC50, mean ± SEM, read-out: Log EC50, ERK1/2‐phosphorylation (converted)

Cc1cccc([C@H](C)c2cnc[nH]2)c1C [Dexmedetomidine]
% 3 μM forskolin, CRE‐SPAP (without forskolin) [1]: 23.6 ± 2.7% | % inhibition, CRE‐SPAP (with forskolin) [2]: 73.4 ± 4.4% | Log EC50 (Gs), CRE‐SPAP (without forskolin) [2]: No response | IC50 ([2]; Log IC50 (Gi), CRE‐SPAP (with forskolin)): 0.692 nM | higher affinity for α2 than α1‐adrenoceptor subtypes [3]: 100 fold | Kd ([4]; read-out: Log KD (converted)): 30.2 nM | Kd ([4]; read-out: Log KD, CHO‐α2C (converted)): 30.2 nM | % 10 μM PDBu, ERK1/2‐phosphorylation [5]: 138.5 ± 15.4% | % 10 μM PDBu, ERK1/2‐phosphorylation [6]: 153.0 ± 18.5% | EC50 ([6]; read-out: Log EC50, ERK1/2‐phosphorylation (converted)): 0.263 nM

NC[C@H](O)c1ccc(O)c(O)c1 [Noradrenaline]
% 3 μM forskolin, CRE‐SPAP (without forskolin) ([1]; CHO‐α2A (cell line 1), maximum response compared to 3 μM forskolin): 171.5 ± 11.1% | IC50 [2]: 309 nM | % inhibition, CRE‐SPAP (with forskolin) [2, 7]: 83.0 ± 3.1% | Log EC50 (Gs), CRE‐SPAP (without forskolin) [2, 8]: No response | Kd [4, 9]: 32400 nM | Kd [4, 10]: 32400 nM | % 10 μM PDBu, ERK1/2‐phosphorylation [5, 11]: 121.9 ± 6.3% | % 10 μM PDBu, ERK1/2‐phosphorylation [6, 12]: 142.3 ± 10.7%

CN[C@@H](C)[C@H](O)c1ccccc1 [Ephedrine]
Log EC50 (Gs), CRE‐SPAP (without forskolin) [1]: No response | Log IC50 (Gi), CRE‐SPAP (with forskolin) [1]: No response | Log EC50 (Gs), CRE‐SPAP (without forskolin) [2]: No response | Log IC50 (Gi), CRE‐SPAP (with forskolin) [2]: No response | Kd [3]: 34700 nM | Selectivity ratio α2A vs α2B (higher affinity for α2A) [3]: 4.2 | Selectivity ratio α2A vs α2C (higher affinity for α2A) [3]: 1.1 | Kd ([3]; Log KD, CHO‐α2A): 34700 nM | Kd [4]: 39800 nM | Selectivity ratio α2B vs α2C (higher affinity for α2C) [4]: 3.6 | Kd ([4]; Log KD, CHO‐α2C): 39800 nM | % 10 μM PDBu, ERK1/2‐phosphorylation [5]: 123.1 ± 17.3% | EC50 [5]: 16600 nM | % 10 μM PDBu, ERK1/2‐phosphorylation [6]: 88.0 ± 12.5% | EC50 [6]: 33100 nM

c1ccc2c(c1)CCCC2C1=NCCN1 (centres unmarked) [Tetrahydrozoline]
% inhibition, CRE‐SPAP (with forskolin) [1, 13]: 69.3 ± 7.2% | Log EC50 (Gs), CRE‐SPAP (without forskolin) [1, 14]: No response | Log efficacy ratio (KD/IC50) [1]: 1.18 | IC50 [1]: 21.4 nM | % inhibition, CRE‐SPAP (with forskolin) [2, 7]: 60.7 ± 3.2% | Log EC50 (Gs), CRE‐SPAP (without forskolin) [2, 8]: No response | Log efficacy ratio (KD/IC50) [2, 15]: 0.40 | IC50 [2, 16]: 339 nM | Kd [3, 17]: 324 nM | Kd [3, 18]: 324 nM | Selectivity ratio α2A vs α2B (higher affinity for α2A) [3, 19]: 17.4 | Selectivity ratio α2A vs α2C (higher affinity for α2A) [3, 19]: 2.6 | Kd [4, 9]: 851 nM | Kd [4, 10]: 851 nM | Selectivity ratio α2B vs α2C (higher affinity for α2C) [4, 19]: 6.6 | % 10 μM PDBu, ERK1/2‐phosphorylation [5, 11]: 123.0 ± 12.8% | EC50 [5, 20]: 3.63 nM | % 10 μM PDBu, ERK1/2‐phosphorylation [6, 12]: 139.6 ± 19.8% | EC50 [6, 21]: 126 nM

Nc1cc(Cl)c(N=C2NCCN2)c(Cl)c1 [Para‐amino‐clonidine]
% 3μM forskolin, CRE-SPAP (without forskolin) [1]: 12.9 ± 4.1% | % 3 μM forskolin, CRE‐SPAP (without forskolin) [1]: 37.6 ± 4.0% | % inhibition, CRE-SPAP (with forskolin) [1]: 67.5 ± 4.8% | Log EC50 (Gs), CRE-SPAP (with forskolin) [1]: -6.29 ± 0.32 | Log EC50 (Gs), CRE‐SPAP (with forskolin) [1]: −6.81 ± 0.15 | Log EC50 (Gs), CRE‐SPAP (without forskolin) [1]: −6.55 ± 0.10 | Log IC50 (Gi), CRE‐SPAP (with forskolin) [1]: −8.74 ± 0.12 | % inhibition, CRE‐SPAP (with forskolin) [2]: 82.3 ± 2.2% | Log EC50 (Gs), CRE‐SPAP (without forskolin) [2]: No response | Log IC50 (Gi), CRE‐SPAP (with forskolin) [2]: −8.09 ± 0.07 | Log efficacy ratio (KD/IC50) [2]: 1.78 | Log KD (binding) [3]: −6.35 | Log KD, CHO‐α2A [3]: −6.35 ± 0.03 | Log KD [4]: −6.31 | % 10 μM PDBu, ERK1/2‐phosphorylation [5]: 141.9 ± 10.6% | Log EC50, ERK1/2‐phosphorylation [5]: −9.58 ± 0.12 | % 10 μM PDBu, ERK1/2‐phosphorylation [6]: 132.6 ± 16.1% | Log EC50, ERK1/2‐phosphorylation [6]: −8.68 ± 0.13

C1COC(NC(C2CC2)C2CC2)=N1 [Rilmenidine]
% inhibition, CRE‐SPAP (with forskolin) [1, 13]: 94.2 ± 3.6% | Log EC50 (Gs), CRE‐SPAP (without forskolin) [1, 14]: No response | Log efficacy ratio (KD/IC50) [1]: 0.96 | IC50 [1]: 170 nM | % inhibition, CRE‐SPAP (with forskolin) [2, 7]: 69.0 ± 7.9% | Log EC50 (Gs), CRE‐SPAP (without forskolin) [2, 8]: No response | Log efficacy ratio (KD/IC50) [2, 15]: 0.52 | IC50 [2, 16]: 468 nM | Kd [3, 17]: 1550 nM | Kd [3, 18]: 1550 nM | Selectivity ratio α2A vs α2B (higher affinity for α2A) [3, 19]: 2.6 | Selectivity ratio α2A vs α2C (higher affinity for α2A) [3, 19]: 1.0 | Kd [4, 9]: 1550 nM | Kd [4, 10]: 1550 nM | Selectivity ratio α2B vs α2C (higher affinity for α2C) [4, 19]: 2.6 | % 10 μM PDBu, ERK1/2‐phosphorylation [5, 11]: 144.0 ± 22.0% | EC50 [5, 20]: 14.8 nM | % 10 μM PDBu, ERK1/2‐phosphorylation [6, 12]: 125.2 ± 15.6% | EC50 [6, 21]: 49 nM

C=CCc1ccccc1OC(C)C1=NCCN1 (centres unmarked) [Allyphenyline]
% inhibition, CRE‐SPAP (with forskolin) [1]: 50.6 ± 6.3% | % inhibition, CRE‐SPAP (with forskolin) [2]: 66.8 ± 4.7% | IC50 [2]: 63.1 nM | Log EC50 (Gs), CRE‐SPAP (without forskolin) [2]: No response | Kd [4]: 214 nM | Kd ([4]; Log KD, CHO‐α2C): 214 nM | % 10 μM PDBu, ERK1/2‐phosphorylation [5]: 127.1 ± 13.0% | % 10 μM PDBu, ERK1/2‐phosphorylation [6]: 134.5 ± 17.9% | EC50 [6]: 11.7 nM
